pIC50: −log10 of the molar value.
Target: T1, Polyunsaturated fatty acid lipoxygenase ALOX15 (Oryctolagus cuniculus, UniProt P12530)
T1 sequence (P12530 whole entry): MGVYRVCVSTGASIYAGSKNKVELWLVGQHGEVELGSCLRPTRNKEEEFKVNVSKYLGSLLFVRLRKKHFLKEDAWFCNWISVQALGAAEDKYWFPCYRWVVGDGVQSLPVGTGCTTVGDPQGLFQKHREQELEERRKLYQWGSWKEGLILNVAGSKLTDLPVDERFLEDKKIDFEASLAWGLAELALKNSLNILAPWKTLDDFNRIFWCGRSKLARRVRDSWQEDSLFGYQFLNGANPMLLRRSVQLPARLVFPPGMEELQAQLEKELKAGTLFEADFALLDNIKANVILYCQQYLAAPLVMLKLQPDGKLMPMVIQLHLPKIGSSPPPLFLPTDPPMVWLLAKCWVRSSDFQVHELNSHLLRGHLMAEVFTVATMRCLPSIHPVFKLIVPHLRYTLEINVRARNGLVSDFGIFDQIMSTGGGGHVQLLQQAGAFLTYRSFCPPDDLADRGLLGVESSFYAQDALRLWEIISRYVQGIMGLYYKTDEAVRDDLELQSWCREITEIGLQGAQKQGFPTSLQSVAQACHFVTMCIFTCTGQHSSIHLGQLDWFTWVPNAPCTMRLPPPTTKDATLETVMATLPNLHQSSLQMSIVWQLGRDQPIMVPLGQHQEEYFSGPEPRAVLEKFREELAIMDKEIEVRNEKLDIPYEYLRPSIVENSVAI
Experiment: Enzyme Inhibition Assay
Experimental: The inhibitory activity of the compounds against purified 15-LO enzyme was determined using a standard colorimetric assay in which the lipid hydroperoxide product (13-hydroperoxyoctadecadienoic acid) oxidizes Fe2+. The Fe3+ forms a chromophore with xylenol orange that absorbs strongly at 560 nm.

Row | pIC50 | Compound
1 | 7.96 | COc1ccc(-c2nc(-c3cccs3)[nH]c2CCNS(=O)(=O)N(C)[C@@H]2CCN(c3ccc(Cl)c(Cl)c3)C2)cc1 [{[(3R)-1-(3,4-dichlorophenyl)pyrrolidin-3-yl](methyl)sulfamoyl}({2-[5-(4-methoxyphenyl)-2-(thiophen-2-yl)-1H-imidazol-4-yl]ethyl})amine]
2 | 6.68 | CCCCCc1ccc(S(=O)(=O)NCCc2nc(-c3ccc(Cl)cc3)[nH]c2-c2ccc(OC)cc2)cc1 [N-{2-[2-(4-chlorophenyl)-5-(4-methoxyphenyl)-1H-imidazol-4-yl]ethyl}-4-pentylbenzene-1-sulfonamide]

Source: BindingDB's records for doi:10.1016/j.bmcl.2007.07.011 (Bristol Myers Squibb, 2007)
